Data reported in patent US12312359B2 (Vitae Pharmaceuticals, LLC, priority 2016, dated 2025).

How the values were obtained:
[1] = test system: human acute monocytic leukemia cell line MV-4-11; experiment: Assay 2: cell proliferation assay (ATP quantitation, CellTiter-Glo), MV-4-11; format: cell-based; settings: MV-4-11 cells
Summary of the method: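 MV-4-11 cells, 1.67×10^4 per well in medium with 10% FBS, were exposed to compound for 72 h at 37° C., 5% CO2; HL-60 cells served as toxicity control. Proliferation read as ATP content by CellTiter-Glo luminescence.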

[2] = target: T1, biotinylated wild-type menin and MLL-AF9 fusion protein (menin/MLL binding) (Homo sapiens, UniProt O00255); experiment: Assay 1: menin/MLL binding AlphaLISA assay, wild-type menin; settings: Table 30; column head does not say wild-type or mutated menin
T1 construct: made in house; host or cells: menin: E. coli; MLL-AF9-FLAG: HEK293 cells, used as cleared lysate
T1 sequence (O00255 1-610): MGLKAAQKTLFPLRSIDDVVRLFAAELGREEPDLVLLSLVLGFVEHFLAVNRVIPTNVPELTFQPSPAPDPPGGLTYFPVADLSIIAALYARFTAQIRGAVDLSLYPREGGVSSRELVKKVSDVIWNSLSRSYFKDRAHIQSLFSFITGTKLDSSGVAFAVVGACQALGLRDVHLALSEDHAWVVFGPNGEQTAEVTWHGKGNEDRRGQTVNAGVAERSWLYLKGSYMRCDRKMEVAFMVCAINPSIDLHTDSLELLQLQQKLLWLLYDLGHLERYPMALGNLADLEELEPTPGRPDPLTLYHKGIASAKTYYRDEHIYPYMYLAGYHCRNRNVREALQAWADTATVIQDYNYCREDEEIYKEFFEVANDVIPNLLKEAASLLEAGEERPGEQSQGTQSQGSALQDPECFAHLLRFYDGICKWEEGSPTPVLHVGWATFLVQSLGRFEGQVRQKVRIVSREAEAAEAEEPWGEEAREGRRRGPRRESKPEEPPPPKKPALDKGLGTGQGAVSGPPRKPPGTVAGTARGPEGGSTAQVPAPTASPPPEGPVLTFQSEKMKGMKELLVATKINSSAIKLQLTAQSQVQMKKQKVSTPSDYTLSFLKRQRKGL
Summary of the method: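 Compound was preincubated 30 min at room temperature with biotinylated menin (5 nM) and MLL-AF9-FLAG lysate from HEK293 cells, pH 7.4 buffer with 5% DMSO and DTT. Bead-based Alpha signal after 60 min with streptavidin donor and anti-FLAG acceptor beads; four-parameter logistic fit gave IC50.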

| Structure (SMILES) | EC50 ([1]; Homo sapiens, MV4-11, 72 h) | IC50 [2] | EC50 ([1]; 72 h) |
| --- | --- | --- | --- |
| Cn1c(-c2cc(F)ccc2Oc2cncnc2N2CCC3(CCN(Cc4ccc5c(c4)[nH]c(=O)n5CCO)C3)C2)c(C2CC2)ccc1=O (single isomer, unassigned) [Example 81A, 5-((7-(5-(2-(3-cyclopropyl-1-methyl-6-oxo-1,6-dihydropyridin-2-yl)-4-fluorophenoxy)pyrimidin-4-yl)-2,7-diazaspiro[4.4]nonan-2-yl)methyl)-1-(2-hydroxyethyl)-1H-benzo[d]imidazol-2(3H)-one] | 100 to 1000 nM | < 100 nM | – |
| CC(C)c1ncncc1-c1cc(F)ccc1Oc1cncnc1N1CC2(CCC(NC(C)(C)C)C2)C1 (stereo not drawn) [Example 96, N-(tert-butyl)-2-(5-(4-fluoro-2-(4-isopropylpyrimidin-5-yl)phenoxy)pyrimidin-4-yl)-2-azaspiro[3.4]octan-6-amine] | 100 to 1000 nM | < 100 nM | – |
| CC(=O)NCCn1c(=O)[nH]c2cc(CN3CCC4(CCN(c5ncncc5Oc5ccc(F)cc5C(=O)N(C)C(C)C)C4)C3)ccc21 (stereo not drawn) [Example 123, 2-((4-(7-((1-(2-acetamidoethyl)-2-oxo-2,3-dihydro-1H-benzo[d]imidazol-5-yl)methyl)-2,7-diazaspiro[4.4]nonan-2-yl)pyrimidin-5-yl)oxy)-5-fluoro-N-isopropyl-N-methylbenzamide] | ≥ 1000 nM | < 100 nM | – |
| CC(C)N(C)C(=O)c1cc(F)ccc1Oc1cncnc1N1CCC2(CN(C(=O)Cc3ccc(C#N)cc3)C2)C1 [Example 127, 2-((4-(2-(2-(4-cyanophenyl)acetyl)-2,6-diazaspiro[3.4]octan-6-yl)pyrimidin-5-yl)oxy)-5-fluoro-N-isopropyl-N-methylbenzamide] | 100 to 1000 nM | < 100 nM | – |
| CC(C)N(C(=O)c1cc(F)ccc1Oc1cncnc1N1CCC2(CCN(Cc3ccc4[nH]c(=O)[nH]c4c3)C2)C1)C1CC1 (stereo not drawn) [Example 122, N-cyclopropyl-5-fluoro-N-isopropyl-2-((4-(7-((2-oxo-2,3-dihydro-1H-benzo[d]imidazol-5-yl)methyl)-2,7-diazaspiro[4.4]nonan-2-yl)pyrimidin-5-yl)oxy)benzamide] | < 100 nM | < 100 nM | – |
| O=C(c1cc(F)ccc1Oc1cncnc1N1CCC2(CCN(Cc3ccc4[nH]c(=O)[nH]c4c3)C2)C1)N1CCOCC1 (stereo not drawn) [Example 155, 5-((7-(5-(4-fluoro-2-(morpholine-4-carbonyl)phenoxy)pyrimidin-4-yl)-2,7-diaza-spiro[4.4]nonan-2-yl)methyl)-1,3-dihydro-2H-benzo[d]imidazol-2-one] | 100 to 1000 nM | < 100 nM | – |
| Cn1c(-c2cc(F)ccc2Oc2cncnc2N2CCC3(CCN(Cc4ccc5c(c4)[nH]c(=O)n5CCO)C3)C2)c(C2CC2)ccc1=O (single isomer, unassigned) [Example 81B, 5-((7-(5-(2-(3-cyclopropyl-1-methyl-6-oxo-1,6-dihydropyridin-2-yl)-4-fluorophenoxy)pyrimidin-4-yl)-2,7-diazaspiro[4.4]nonan-2-yl)methyl)-1-(2-hydroxyethyl)-1H-benzo[d]imidazol-2(3H)-one] | – | < 100 nM | < 100 nM |
| CC(C)c1ccccc1-c1cc(F)ccc1Oc1cncnc1N1CC2(CC(NCc3ccc(C#N)cc3)CO2)C1 (stereo not drawn) [Example 19, 4-(((2-(5-((5-fluoro-2′-isopropyl-[1,1′-biphenyl]-2-yl)oxy)pyrimidin-4-yl)-5-oxa-2-azaspiro[3.4]octan-7-yl)amino)methyl)benzonitrile] | 100 to 1000 nM | < 100 nM | – |
| Fc1ccc(Oc2cncnc2N2CCC3(CCN(CC4CCOCC4)C3)C2)c(OC2CCCC2)c1 (stereo not drawn) [Example 108, 2-(5-(2-(cyclopentyloxy)-4-fluorophenoxy)pyrimidin-4-yl)-7-((tetrahydro-2H-pyran-4-yl)methyl)-2,7-diazaspiro[4.4]nonane] | ≥ 1000 nM | < 100 nM | – |
| Cc1cc(C#N)cc(C)c1-c1cc(F)ccc1Oc1cncnc1N1CCC2(CCN(Cc3ccc4[nH]c(=O)[nH]c4c3)C2)C1 (stereo not drawn) [Example 51, 5′-fluoro-2,6-dimethyl-2′-((4-(7-((2-oxo-2,3-dihydro-1H-benzo[d]imidazol-5-yl)methyl)-2,7-diazaspiro[4.4]nonan-2-yl)pyrimidin-5-yl)oxy)-[1,1′-biphenyl]-4-carbonitrile] | < 100 nM | < 100 nM | – |

Now from value to compound:

| EC50 ([1]; Homo sapiens, MV4-11, 72 h) | IC50 [2] | EC50 ([1]; 72 h) | Structure (SMILES) |
| --- | --- | --- | --- |
| < 100 nM | < 100 nM | – | CC(C)N(C(=O)c1cc(F)ccc1Oc1cncnc1N1CC2(CC(N(C)C3CCOCC3)C2)C1)C(C)C [Example 240, 5-fluoro-N,N-diisopropyl-2-((4-(6-(methyl(tetrahydro-2H-pyran-4-yl)amino)-2-azaspiro[3.3]heptan-2-yl)pyrimidin-5-yl)oxy)benzamide] |
| < 100 nM | < 100 nM | – | CC(C)n1nccc1-c1cc(F)ccc1Oc1cncnc1N1CCC2(CCN(Cc3ccc4[nH]c(=O)[nH]c4c3)C2)C1 (single isomer, unassigned) [Example 197A, 5-((7-(5-(4-fluoro-2-(1-isopropyl-1H-pyrazol-5-yl)phenoxy)pyrimidin-4-yl)-2,7-diazaspiro[4.4]nonan-2-yl)methyl)-1,3-dihydro-2H-benzo[d]imidazol-2-one] |
| 100 to 1000 nM | < 100 nM | – | CC(C)c1ccccc1-c1cc(F)ccc1Oc1cncnc1N1CC2(CN(C(=O)Cc3ccc(C#N)cc3)C2)C1 [Example 228, 4-(2-(6-(5-((5-fluoro-2′-isopropyl-[1,1′-biphenyl]-2-yl)oxy)pyrimidin-4-yl)-2,6-diazaspiro[3.3]heptan-2-yl)-2-oxoethyl)benzonitrile] |
| ≥ 1000 nM | < 100 nM | – | CC(C)C1CCC(=O)N1c1cc(F)ccc1Oc1cncnc1N1CCC2(CCN(Cc3ccc4[nH]c(=O)[nH]c4c3)C2)C1 (stereo not drawn) [Example 218, 5-((7-(5-(4-fluoro-2-(2-isopropyl-5-oxopyrrolidin-1-yl)phenoxy)pyrimidin-4-yl)-2,7-diazaspiro[4.4]nonan-2-yl)methyl)-1,3-dihydro-2H-benzo[d]imidazol-2-one] |
| – | < 100 nM | < 100 nM | CC(C)n1nccc1-c1cc(F)ccc1Oc1cncnc1N1CCC2(CCN(Cc3ccc4[nH]c(=O)[nH]c4c3)C2)C1 (single isomer, unassigned) [Example 197B, 5-((7-(5-(4-fluoro-2-(1-isopropyl-1H-pyrazol-5-yl)phenoxy)pyrimidin-4-yl)-2,7-diazaspiro[4.4]nonan-2-yl)methyl)-1,3-dihydro-2H-benzo[d]imidazol-2-one] |
| 100 to 1000 nM | < 100 nM | – | CC(C)Oc1ncccc1-c1cc(F)ccc1Oc1cncnc1N1CC2(CN(CC3CCOCC3)C2)C1 [Example 162, 2-(5-(4-fluoro-2-(2-isopropoxypyridin-3-yl)phenoxy)pyrimidin-4-yl)-6-((tetrahydro-2H-pyran-4-yl)methyl)-2,6-diazaspiro[3.3]heptane] |
| < 100 nM | < 100 nM | – | N#Cc1ccc(-c2cc(F)ccc2Oc2cncnc2N2CCC3(CCN(Cc4ccc5nn[nH]c5c4)C3)C2)c(C2CC2)c1 (stereo not drawn) [Example 171, 2′-((4-(7-((1H-benzo[d][1,2,3]triazol-6-yl)methyl)-2,7-diazaspiro[4.4]nonan-2-yl)pyrimidin-5-yl)oxy)-2-cyclopropyl-5′-fluoro-[1,1′-biphenyl]-4-carbonitrile] |
| 100 to 1000 nM | < 100 nM | – | CC(C)N(C)C(=O)c1cc(F)ccc1Oc1cncnc1N1CCC2(CCN(Cc3c[nH]c4cc(C#N)ccc34)C2)C1 (stereo not drawn) [Example 194, 2-((4-(7-((6-cyano-1H-indol-3-yl)methyl)-2,7-diazaspiro[4.4]nonan-2-yl)pyrimidin-5-yl)oxy)-5-fluoro-N-isopropyl-N-methylbenzamide] |
